Laboratory results: patent US20170298052A1, “SUBSTITUTED OXOPYRIDINE DERIVATIVES” (BAYER PHARMA AKTIENGESELLSCHAFT, priority 2014, published 2017)

Experiments:
human factor XIa = target: T1, human factor XIa (Homo sapiens, UniProt P03951); assay: Measurement of FXIa inhibition (fluorogenic peptide substrate, AMC cleavage); type: biochemical; conditions: factor XIa from Kordia 0.45 nM; substrate Boc-Glu(OBzl)-Ala-Arg-AMC; 30 min at 22° C.
T1 construct: purchased Kordia
Description: (§1) The factor XIa inhibition of the substances according to the invention is determined using a biochemical test system which utilizes the reaction of a peptidic factor XIa substrate to determine the enzymatic activity of human factor XIa. Here, factor XIa cleaves from the peptic factor XIa substrate the C-terminal aminomethylcoumarin (AMC), the fluorescence of which is measured. The determinations are carried out in microtitre plates.
1 μl of the diluted substance solutions is placed into each of the wells of white microtitre plates from Greiner (384 wells). […] After 15 min of incubation, the enzyme reaction is started by addition of 20 μl of the factor XIa substrate Boc-Glu(OBzl)-Ala-Arg-AMC dissolved in assay buffer (10 μM in assay buffer) from Bachem, the mixture is incubated at room temperature (22° C.) for 30 min and fluorescence is then measured (excitation: 360 nm, emission: 460 nm). The measured emissions of the test batches with test substance are compared to those of control batches without test substance (only dimethyl sulphoxide instead of test substance in dimethyl sulphoxide), and IC50 values are calculated from the concentration/activity relationships.

human plasma kallikrein = human plasma kallikrein (Homo sapiens, UniProt P03952); assay: Determination of the plasma kallikrein activity (fluorogenic peptide substrate, AMC cleavage); type: biochemical; conditions: plasma kallikrein from Kordia 0.6 nM; substrate H-Pro-Phe-Arg-AMC; 30 min at 22° C.; read-out: IC50 [nM] (Table B, plasma kallikrein inhibition)
Description: as §1, with “To determine the plasma kallikrein” for “The factor XIa”, “invention,” for “invention is determined using”, “system is used” for “system”, “plasma kallikrein” for “factor XIa”, “plasma kallikrein.” for “factor XIa.”
Test substances are dissolved in dimethyl sulphoxide and serially diluted in dimethyl sulphoxide (3000 μM to 0.0078 μM; resulting final concentrations in the test: 50 μM to 0.00013 μM). 1 μl of the diluted substance solutions is placed into each of the wells of white microtitre plates from Greiner (384 wells). 20 μl of assay buffer (50 mM Tris/HCl pH 7.4; 100 mM sodium chloride solution; 5 mM of calcium chloride solution; 0.1% of bovine serum albumin) and 20 μl of plasma kallikrein from Kordia (0.6 nM in assay buffer) are then added successively. After 15 min of incubation, the enzyme reaction is started by addition of 20 μl of the substrate H-Pro-Phe-Arg-AMC dissolved in assay buffer (10 μM in assay buffer) from Bachem, the mixture is incubated at room temperature (22° C.) for 30 min and fluorescence is then measured (excitation: 360 nm, emission: 460 nm). The measured emissions of the test batches with test substance are compared to those of control batches without test substance (only dimethyl sulphoxide instead of test substance in dimethyl sulphoxide), and IC50 values are calculated from the concentration/activity relationships.

T1 sequence (P03951 388-625 limits assumed): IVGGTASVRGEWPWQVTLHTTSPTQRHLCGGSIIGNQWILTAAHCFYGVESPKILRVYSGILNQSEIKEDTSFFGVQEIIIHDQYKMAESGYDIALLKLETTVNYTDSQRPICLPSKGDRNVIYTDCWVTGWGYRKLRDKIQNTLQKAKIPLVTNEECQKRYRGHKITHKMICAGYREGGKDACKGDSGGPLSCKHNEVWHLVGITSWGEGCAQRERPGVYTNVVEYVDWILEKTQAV
T1 sequence (P03951 19-387 partner limits assumed): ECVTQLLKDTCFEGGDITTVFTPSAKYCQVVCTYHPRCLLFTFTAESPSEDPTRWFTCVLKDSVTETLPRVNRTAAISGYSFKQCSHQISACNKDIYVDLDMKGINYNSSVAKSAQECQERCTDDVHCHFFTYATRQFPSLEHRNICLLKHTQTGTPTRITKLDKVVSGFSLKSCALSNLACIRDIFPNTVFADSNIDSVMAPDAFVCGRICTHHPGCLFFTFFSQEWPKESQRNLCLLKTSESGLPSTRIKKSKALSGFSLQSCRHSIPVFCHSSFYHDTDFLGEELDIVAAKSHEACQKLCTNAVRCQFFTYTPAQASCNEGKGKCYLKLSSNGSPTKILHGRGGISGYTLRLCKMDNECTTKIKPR
Sequence of human plasma kallikrein (P03952 391-638 limits assumed): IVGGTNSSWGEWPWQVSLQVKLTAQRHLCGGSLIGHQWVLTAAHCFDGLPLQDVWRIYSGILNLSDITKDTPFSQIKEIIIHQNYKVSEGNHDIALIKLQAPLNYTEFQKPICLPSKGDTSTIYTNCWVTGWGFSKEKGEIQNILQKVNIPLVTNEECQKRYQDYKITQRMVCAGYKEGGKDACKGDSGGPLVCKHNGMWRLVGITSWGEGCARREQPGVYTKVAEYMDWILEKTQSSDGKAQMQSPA
Sequence of human plasma kallikrein (P03952 20-390 partner limits assumed): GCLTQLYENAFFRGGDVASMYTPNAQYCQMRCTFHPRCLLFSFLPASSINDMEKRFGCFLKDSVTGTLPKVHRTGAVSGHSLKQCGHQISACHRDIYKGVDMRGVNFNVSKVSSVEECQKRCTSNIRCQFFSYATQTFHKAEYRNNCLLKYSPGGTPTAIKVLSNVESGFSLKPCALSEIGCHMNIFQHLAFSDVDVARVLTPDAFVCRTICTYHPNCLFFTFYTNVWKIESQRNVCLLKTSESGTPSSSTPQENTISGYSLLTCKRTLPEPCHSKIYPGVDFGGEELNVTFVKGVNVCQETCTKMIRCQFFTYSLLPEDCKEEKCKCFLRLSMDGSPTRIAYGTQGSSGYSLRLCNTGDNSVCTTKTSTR

SMILES	IC50 (human factor XIa) [nM]	IC50 (human plasma kallikrein) [nM]
CCOCCC(C(=O)Nc1ccc(C(N)=O)c(F)c1)n1cc(OC)c(-c2cc(Cl)ccc2C#N)cc1=O (racemic) [Example 18, 4-({2-[4-(5-Chloro-2-cyanophenyl)-5-methoxy-2-oxopyridin-1(2H)-yl]-4-ethoxybutanoyl}amino)-2-fluorobenzamide]	14	11
COc1cn(C(CCOC(C)C)C(=O)Nc2ccc(C(N)=O)c(F)c2)c(=O)cc1-c1cc(Cl)ccc1C#N (racemic) [Example 19, 4-({2-[4-(5-Chloro-2-cyanophenyl)-5-methoxy-2-oxopyridin-1(2H)-yl]-4-isopropoxybutanoyl}amino)-2-fluorobenzamide]	12.5	7.4
COc1cn(C(CCOC2CCC2)C(=O)Nc2ccc(C(N)=O)c(F)c2)c(=O)cc1-c1cc(Cl)ccc1C#N (racemic) [Example 20, 4-({2-[4-(5-Chloro-2-cyanophenyl)-5-methoxy-2-oxopyridin-1(2H)-yl]-4-(cyclobutyloxy)-butanoyl}amino)-2-fluorobenzamide]	7.4	6.1
COc1cn(C(CCOC(C)(C)C)C(=O)Nc2ccc(C(N)=O)c(F)c2)c(=O)cc1-c1cc(Cl)ccc1C#N (racemic) [Example 21, 4-({4-tert-Butoxy-2-[4-(5-chloro-2-cyanophenyl)-5-methoxy-2-oxopyridin-1(2H)-yl]butanoyl}amino)-2-fluorobenzamide]	7.4	6.8
COc1cn(C(CCOCC(F)F)C(=O)Nc2ccc(C(N)=O)c(F)c2)c(=O)cc1-c1cc(Cl)ccc1C#N (racemic) [Example 22, 4-({2-[4-(5-Chloro-2-cyanophenyl)-5-methoxy-2-oxopyridin-1(2H)-yl]-4-(2,2-difluoroethoxy)-butanoyl}amino)-2-fluorobenzamide]	21	12
COCCC(C(=O)Nc1ccc(C(N)=O)c(F)c1)n1cc(OC)c(-c2cc(OC)ccc2C#N)cc1=O (racemic) [Example 23, 4-({2-[4-(2-Cyano-5-methoxyphenyl)-5-methoxy-2-oxopyridin-1(2H)-yl]-4-methoxybutanoyl}amino)-2-fluorobenzamide]	170	310
COCCC(C(=O)Nc1ccc(C(N)=O)c(F)c1)n1cc(OC)c(-c2cc(Cl)c(F)cc2C#N)cc1=O (racemic) [Example 25, 4-({2-[4-(5-Chloro-2-cyano-4-fluorophenyl)-5-methoxy-2-oxopyridin-1(2H)-yl]-4-methoxy-butanoyl}amino)-2-fluorobenzamide]	310	160
CCC(C(=O)Nc1ccc(C(=O)NC)cc1)n1cc(OC)c(-c2cc(Cl)ccc2C#N)cc1=O (racemic) [Example 26, 4-({2-[4-(5-chloro-2-cyanophenyl)-5-methoxy-2-oxopyridin-1(2H)-yl]butanoyl}amino)-N-methylbenzamide]	20	20
CCC(C(=O)Nc1ccc(C(=O)NC)c(Cl)c1)n1cc(OC)c(-c2cc(Cl)ccc2C#N)cc1=O (racemic) [Example 27, 2-Chloro-4-({2-[4-(5-chloro-2-cyanophenyl)-5-methoxy-2-oxopyridin-1(2H)-yl]butanoyl}amino)-N-methylbenzamide]	50	71
CNC(=O)c1ccc(NC(=O)C(Cc2ccccn2)n2cc(OC)c(-c3cc(Cl)ccc3C#N)cc2=O)cc1F (racemic) [Example 30, 4-({2-[4-(5-Chloro-2-cyanophenyl)-5-methoxy-2-oxopyridin-1(2H)-yl]-3-(pyridin-2-yl)propanoyl}amino)-2-fluoro-N-methylbenzamide]	9.7	8.2
COCCC(C(=O)Nc1ccc(C(N)=O)c(F)c1)n1cc(OC)c(-c2cc(Cl)ccc2C#N)cc1=O (racemic) [Example 31, 4-({2-[4-(5-Chloro-2-cyanophenyl)-5-methoxy-2-oxopyridin-1(2H)-yl]-4-methoxybutanoyl}amino)-2-fluorobenzamide]		9.7
COc1cn(C(Cc2cc(C)no2)C(=O)Nc2ccc(C(N)=O)c(F)c2)c(=O)cc1-c1cc(Cl)ccc1C#N (racemic) [Example 32, 4-({2-[4-(5-Chloro-2-cyanophenyl)-5-methoxy-2-oxopyridin-1(2H)-yl]-3-(3-methyl-1,2-oxazol-5-yl)propanoyl}amino)-2-fluorobenzamide]	13	11
COc1cn(C(Cc2noc(C)n2)C(=O)Nc2ccc(C(N)=O)c(F)c2)c(=O)cc1-c1cc(Cl)ccc1C#N (racemic) [Example 33, 4-({2-[4-(5-Chloro-2-cyanophenyl)-5-methoxy-2-oxopyridin-1(2H)-yl]-3-(5-methyl-1,2,4-oxadiazol-3-yl)propanoyl}amino)-2-fluorobenzamide]	15	10
COc1cn(C(Cc2ccccn2)C(=O)Nc2ccc(C(N)=O)c(F)c2)c(=O)cc1-c1cc(Cl)ccc1C(F)F (racemic) [Example 34, 4-{[2-{4-[5-Chloro-2-(difluoromethyl)phenyl]-5-methoxy-2-oxopyridin-1(2H)-yl}-3-(pyridin-2-yl)propanoyl}amino]-2-fluorobenzamide]	42	53
COc1cn(C(Cc2nnc(C)o2)C(=O)Nc2ccc(C(N)=O)c(F)c2)c(=O)cc1-c1cc(Cl)ccc1C#N (racemic) [Example 35, 4-({2-[4-(5-Chloro-2-cyanophenyl)-5-methoxy-2-oxopyridin-1(2H)-yl]-3-(5-methyl-1,3,4-oxadiazol-2-yl)propanoyl}amino)-2-fluorobenzamide]	12	7.3
COc1cn(C(Cc2ncco2)C(=O)Nc2ccc(C(N)=O)c(F)c2)c(=O)cc1-c1cc(Cl)ccc1C#N (racemic) [Example 36, 4-({2-[4-(5-Chloro-2-cyanophenyl)-5-methoxy-2-oxopyridin-1(2H)-yl]-3-(1,3-oxazol-2-yl)propanoyl}amino)-2-fluorobenzamide]	13	11
COc1cn(C(Cc2cc(C)on2)C(=O)Nc2ccc(C(N)=O)c(F)c2)c(=O)cc1-c1cc(Cl)ccc1C#N (racemic) [Example 37, 4-({2-[4-(5-Chloro-2-cyanophenyl)-5-methoxy-2-oxopyridin-1(2H)-yl]-3-(5-methyl-1,2-oxazol-3-yl)propanoyl}amino)-2-fluorobenzamide]	12	6.2
COc1cn(C(Cc2ccn(C)n2)C(=O)Nc2ccc(C(N)=O)c(F)c2)c(=O)cc1-c1cc(Cl)ccc1C#N (racemic) [Example 38, 4-({2-[4-(5-Chloro-2-cyanophenyl)-5-methoxy-2-oxopyridin-1(2H)-yl]-3-(1-methyl-1H-pyrazol-3-yl)propanoyl}amino)-2-fluorobenzamide]	6.2	3.6
COc1cn(C(Cc2nnc(C3CC3)o2)C(=O)Nc2ccc(C(N)=O)c(F)c2)c(=O)cc1-c1cc(Cl)ccc1C#N (racemic) [Example 39, 4-({2-[4-(5-Chloro-2-cyanophenyl)-5-methoxy-2-oxopyridin-1(2H)-yl]-3-(5-cyclopropyl-1,3,4-oxadiazol-2-yl)propanoyl}amino)-2-fluorobenzamide]	70	38
COc1cn(C(Cc2cnco2)C(=O)Nc2cc(F)c(C(N)=O)c(F)c2)c(=O)cc1-c1cc(Cl)ccc1C#N (racemic) [Example 40, 4-({2-[4-(5-Chloro-2-cyanophenyl)-5-methoxy-2-oxopyridin-1(2H)-yl]-3-(1,3-oxazol-5-yl)propanoyl}amino)-2,6-difluorobenzamide]	34	27
COc1cn(C(Cc2coc(C)n2)C(=O)Nc2ccc(C(N)=O)c(F)c2)c(=O)cc1-c1cc(Cl)ccc1C#N (racemic) [Example 41, 4-({2-[4-(5-Chloro-2-cyanophenyl)-5-methoxy-2-oxopyridin-1(2H)-yl]-3-(2-methyl-1,3-oxazol-4-yl)-propanoyl}amino)-2-fluorobenzamide]	28	21
COc1cn(C(CC2=NOCC2)C(=O)Nc2ccc(C(N)=O)c(F)c2)c(=O)cc1-c1cc(Cl)ccc1C#N (racemic) [Example 42, 4-({2-[4-(5-Chloro-2-cyanophenyl)-5-methoxy-2-oxopyridin-1(2H)-yl]-3-(4,5-dihydro-1,2-oxazol-3-yl)propanoyl}amino)-2-fluorobenzamide]	51	38
